Test results reported in ChEMBL document CHEMBL3046652, “Photodimerization of heteroaryl chalcones: comparative antimicrobial activities of chalcones and their photoproducts” (2012).
In brackets after ≈: the same amount, converted by molar mass.

Key:
Format in all cases: functional
[1] = system: Aspergillus oryzae; experiment: Antimicrobial activity against Aspergillus oryzae at 10 to 60 ug/disk by disk diffusion method
[2] = system: Klebsiella pneumoniae; experiment: Antimicrobial activity against Klebsiella pneumoniae at 10 to 60 ug/disk by disk diffusion method
[3] = system: Proteus vulgaris; experiment: Antimicrobial activity against Proteus vulgaris at 10 to 60 ug/disk by disk diffusion method
[4] = system: Aspergillus niger; experiment: Antimicrobial activity against Aspergillus niger at 10 to 60 ug/disk by disk diffusion method
[5] = system: Serratia marcescens; experiment: Antimicrobial activity against Serratia marcescens at 10 to 60 ug/disk by disk diffusion method
[6] = system: Escherichia coli; experiment: Antimicrobial activity against Escherichia coli at 10 to 60 ug/disk by disk diffusion method
[7] = system: Pseudomonas aeruginosa; experiment: Antimicrobial activity against Pseudomonas aeruginosa at 10 to 60 ug/disk by disk diffusion method
[8] = system: Fusarium verticillioides; experiment: Antimicrobial activity against Fusarium verticillioides at 10 to 60 ug/disk by disk diffusion method
[9] = system: Citrobacter freundii; experiment: Antimicrobial activity against Citrobacter freundii at 10 to 60 ug/disk by disk diffusion method
[10] = system: Salmonella typhi; experiment: Antimicrobial activity against Salmonella enterica subsp. enterica serovar Typhi at 10 to 60 ug/disk by disk diffusion method
[11] = system: Candida albicans; experiment: Antimicrobial activity against Candida albicans at 10 to 60 ug/disk by disk diffusion method
[12] = system: Micrococcus luteus; experiment: Antimicrobial activity against Micrococcus luteus at 10 to 60 ug/disc by disk diffusion method
[13] = system: Priestia megaterium; experiment: Antimicrobial activity against Bacillus megaterium at 10 to 60 ug/disk by disk diffusion method
[14] = system: Serratia marcescens; experiment: Antimicrobial activity against Serratia marcescens by disk diffusion method
[15] = system: Aspergillus oryzae; experiment: Antimicrobial activity against Aspergillus oryzae at 10 ug/disk by disk diffusion method; settings: read-out: DIZ
[16] = system: Fusarium verticillioides; experiment: Antimicrobial activity against Fusarium verticillioides at 10 ug/disk by disk diffusion method; settings: read-out: DIZ
[17] = system: Klebsiella pneumoniae; experiment: Antimicrobial activity against Klebsiella pneumoniae by disk diffusion method
[18] = system: Salmonella typhi; experiment: Antimicrobial activity against Salmonella enterica subsp. enterica serovar Typhi at 10 ug/disk by disk diffusion method; settings: read-out: DIZ
[19] = system: Escherichia coli; experiment: Antimicrobial activity against Escherichia coli at 10 ug/disk by disk diffusion method; settings: read-out: DIZ
[20] = system: Escherichia coli; experiment: Antimicrobial activity against Escherichia coli by disk diffusion method
[21] = system: Salmonella typhi; experiment: Antimicrobial activity against Salmonella enterica subsp. enterica serovar Typhi by disk diffusion method
[22] = system: Pseudomonas aeruginosa; experiment: Antimicrobial activity against Pseudomonas aeruginosa at 10 ug/disk by disk diffusion method; settings: read-out: DIZ
[23] = system: Aspergillus niger; experiment: Antimicrobial activity against Aspergillus niger at 20 ug/disk by disk diffusion method; settings: read-out: DIZ
[24] = system: Serratia marcescens; experiment: Antimicrobial activity against Serratia marcescens at 20 ug/disk by disk diffusion method; settings: read-out: DIZ
[25] = system: Citrobacter freundii; experiment: Antimicrobial activity against Citrobacter freundii by disk diffusion method
[26] = system: Candida albicans; experiment: Antimicrobial activity against Candida albicans at 40 ug/disk by disk diffusion method; settings: read-out: DIZ
[27] = system: Priestia megaterium; experiment: Antimicrobial activity against Bacillus megaterium at 10 ug/disk by disk diffusion method; settings: read-out: DIZ
[28] = system: Proteus vulgaris; experiment: Antimicrobial activity against Proteus vulgaris by disk diffusion method
[29] = system: Pseudomonas aeruginosa; experiment: Antimicrobial activity against Pseudomonas aeruginosa by disk diffusion method
[30] = system: Citrobacter freundii; experiment: Antimicrobial activity against Citrobacter freundii at 20 ug/disk by disk diffusion method; settings: read-out: DIZ
[31] = system: Proteus vulgaris; experiment: Antimicrobial activity against Proteus vulgaris at 20 ug/disk by disk diffusion method; settings: read-out: DIZ
[32] = system: Micrococcus luteus; experiment: Antimicrobial activity against Micrococcus luteus by disk diffusion method
[33] = system: Micrococcus luteus; experiment: Antimicrobial activity against Micrococcus luteus at 10 ug/disc by disk diffusion method; settings: read-out: DIZ
[34] = system: Priestia megaterium; experiment: Antimicrobial activity against Bacillus megaterium by disk diffusion method
[35] = system: Pseudomonas aeruginosa; experiment: Antimicrobial activity against Pseudomonas aeruginosa at 40 ug/disk by disk diffusion method; settings: read-out: DIZ
[36] = system: Fusarium verticillioides; experiment: Antimicrobial activity against Fusarium verticillioides at 40 ug/disk by disk diffusion method; settings: read-out: DIZ
[37] = system: Klebsiella pneumoniae; experiment: Antimicrobial activity against Klebsiella pneumoniae at 20 ug/disk by disk diffusion method; settings: read-out: DIZ
[38] = system: Aspergillus niger; experiment: Antimicrobial activity against Aspergillus niger at 50 ug/disk by disk diffusion method; settings: read-out: DIZ
[39] = system: Proteus vulgaris; experiment: Antimicrobial activity against Proteus vulgaris at 10 ug/disk by disk diffusion method; settings: read-out: DIZ
[40] = system: Serratia marcescens; experiment: Antimicrobial activity against Serratia marcescens at 10 ug/disk by disk diffusion method; settings: read-out: DIZ

Compound	diameter of the inhibition zone (DIZ) [1] [mm]	diameter of the inhibition zone (DIZ) [2] [mm]	diameter of the inhibition zone (DIZ) [3] [mm]	diameter of the inhibition zone (DIZ) [4] [mm]	diameter of the inhibition zone (DIZ) [5] [mm]	diameter of the inhibition zone (DIZ) [6] [mm]	diameter of the inhibition zone (DIZ) [7] [mm]	diameter of the inhibition zone (DIZ) [8] [mm]	diameter of the inhibition zone (DIZ) [9] [mm]	diameter of the inhibition zone (DIZ) [10] [mm]	diameter of the inhibition zone (DIZ) [11] [mm]	diameter of the inhibition zone (DIZ) [12] [mm]	diameter of the inhibition zone (DIZ) [13] [mm]	MIC [14] [mg/L]	zone of inhibition at 10 µg/disc [15] [mm]	MIC [17] [mg/L]	zone of inhibition at 10 µg/disc [18] [mm]	zone of inhibition at 10 µg/disc [19] [mm]	MIC [20] [mg/L]	MIC [21] [mg/L]	further results
OC(/C=C/c1cccs1)(c1ccccc1)C(O)(/C=C/c1cccs1)c1ccccc1 (stereo not drawn)	5	7	5	5	5	5	5	5	5	7	5	8	5	–	–	–	–	–	–	–	–
O=C(/C=C/c1ccccc1)c1cccs1	–	10	–	–	–	–	–	–	–	–	–	–	–	10 (≈ 46.7 µM)	9	10 (≈ 46.7 µM)	12	5	10 (≈ 46.7 µM)	10 (≈ 46.7 µM)	zone of inhibition at 10 µg/disc [16]: 9 mm; zone of inhibition at 10 µg/disc [22]: 5 mm; zone of inhibition at 20 µg/disc [23]: 7 mm; zone of inhibition at 20 µg/disc [24]: 9 mm; MIC [25]: 10 mg/L (≈ 46.7 µM); zone of inhibition at 40 µg/disc [26]: 9 mm; zone of inhibition at 10 µg/disc [27]: 10 mm; MIC [28]: 10 mg/L (≈ 46.7 µM); MIC [29]: 10 mg/L (≈ 46.7 µM); zone of inhibition at 20 µg/disc [30]: 7 mm; zone of inhibition at 20 µg/disc [31]: 11 mm; MIC [32]: 10 mg/L (≈ 46.7 µM); zone of inhibition at 10 µg/disc [33]: 9 mm; MIC [34]: 10 mg/L (≈ 46.7 µM)
OC(/C=C/c1ccc[nH]1)(c1ccccc1)C(O)(/C=C/c1ccc[nH]1)c1ccccc1 (stereo not drawn)	9	5	5	5	5	5	5	5	5	5	5	5	5	–	–	–	–	–	–	–	–
O=C(c1ccco1)C1C(C(=O)c2ccco2)C(c2ccccc2)C1c1ccccc1 (stereo not drawn)	5	5	7	5	5	5	5	6	5	5	5	7	5	–	–	–	–	–	–	–	–
O=C(/C=C/c1ccc[nH]1)c1ccccc1	–	–	–	–	–	–	–	–	–	–	–	–	–	10 (≈ 50.7 µM)	9	10 (≈ 50.7 µM)	5	6	10 (≈ 50.7 µM)	10 (≈ 50.7 µM)	zone of inhibition at 40 µg/disc [35]: 9 mm; zone of inhibition at 40 µg/disc [36]: 6 mm; zone of inhibition at 20 µg/disc [37]: 9 mm; zone of inhibition at 50 µg/disc [38]: 8 mm; MIC [25]: 10 mg/L (≈ 50.7 µM); zone of inhibition at 40 µg/disc [26]: 7 mm; zone of inhibition at 10 µg/disc [39]: 5 mm; zone of inhibition at 10 µg/disc [27]: 12 mm; MIC [28]: 10 mg/L (≈ 50.7 µM); MIC [29]: 10 mg/L (≈ 50.7 µM); zone of inhibition at 20 µg/disc [30]: 9 mm; MIC [32]: 10 mg/L (≈ 50.7 µM); zone of inhibition at 10 µg/disc [33]: 7 mm; zone of inhibition at 10 µg/disc [40]: 7 mm; MIC [34]: 10 mg/L (≈ 50.7 µM)
